Broadly, the pIC50 is the IC50 on a negative log10 scale, so that one unit is a factor of ten. Higher therefore signals a low IC50.

pIC50: −log10 of the molar value.

The values below come from patent publication US9492460B2, “Carbazole compounds useful as bromodomain inhibitors” (Bristol-Myers Squibb Company, priority 2013, dated 2016).

The target of the test is T1, bromodomain BRD4 (44-168), BRD4 (333-460), and BRD4 (1-477 or 44-460) (Homo sapiens, UniProt O60885).
T1 construct: BRD4(44-168), BRD4(333-460), BRD4(44-460), BRD4(1-477), O60885-1; fused on or other part: N-terminal BirA biotinylation motif, biotinylated; The TVMV-cleavable His6 tag is removed, except in some BRD4(44-460) runs detected with anti-His terbium cryptate
Briefly: Time Resolved Fluorescence Resonance Energy Transfer (TR-FRET) binding assay. Conditions: one of the FRET assays described. (In general: Time-resolved FRET reads energy transfer from a long-lived donor to a nearby acceptor.)
For `Cc1noc(C)c1-c1cc(C(N)=O)c2c3cc(NCC#N)ccc3n(Cc3ccccc3)c2c1` [Example 138, 9-benzyl-6-((cyanomethyl)amino)-2-(3,5-dimethyl-4-isoxazolyl)-9H-carbazole-4-carboxamide], the pIC50 is > 7.30.

Regarding `Cc1noc(C)c1-c1cc(C(N)=O)c2c3ccc(C(C)(C)O)c(F)c3n(C(c3ccccc3)C3CCC(F)(F)CC3)c2c1` (single isomer, unassigned) [Example 227, 9-[(4,4-difluorocyclohexyl)(phenyl)methyl]-2-(dimethyl-1,2-oxazol-4-yl)-8-fluoro-7-(2-hydroxypropan-2-yl)-9H-carbazole-4-carboxamide], the pIC50 is > 7.30.

In the case of `COC(=O)c1ccc2c3c(C#N)cc(-c4c(C)noc4C)cc3n(C(c3ccccc3)c3ccccc3)c2c1` [Example 191, Methyl 5-cyano-7-(3,5-dimethyl-4-isoxazolyl)-9-(diphenylmethyl)-9H-carbazole-2-carboxylate], the negative logarithm of the IC50 (pIC50) is > 7.30.

Turning to `Cc1noc(C)c1-c1cc(C(N)=O)c2c3cc(O)ccc3n(Cc3ccccc3)c2c1` [Example 178, 9-benzyl-2-(3,5-dimethyl-4-isoxazolyl)-6-hydroxy-9H-carbazole-4-carboxamide], the pIC50 was > 7.30.

Take `Cc1noc(C)c1-c1cc(C(N)=O)c2c3cc(C(=O)N4CCC(C)(C)C4)ccc3n(Cc3ccccc3)c2c1` [Example 58]: the pIC50 was > 7.30.

Consider `COc1ccc2c(c1)c1c(C(N)=O)cc(-c3c(C)noc3C)cc1n2Cc1ccccc1` [Example 177, 9-benzyl-2-(3,5-dimethyl-4-isoxazolyl)-6-methoxy-9H-carbazole-4-carboxamide], for which the negative-log IC50 (pIC50) is > 7.30.

Take `Cc1noc(C)c1-c1cc(C(N)=O)c2c3cc(C(=O)N4C[C@@H](C)O[C@@H](C)C4)ccc3n(C(=O)c3ccccc3)c2c1` [Example 46, 9-benzoyl-2-(3,5-dimethylisoxazol-4-yl)-6-(cis-2,6-dimethylmorpholine-4-carbonyl)-9H-carbazole-4-carboxamide]: the pIC50 is > 6.30.

As for `Cc1noc(C)c1-c1cc(C(N)=O)c2c3ccc(C(C)(C)O)c(F)c3n(C(c3ccc(F)cc3)C3CCOCC3)c2c1` (single isomer, unassigned) [Example 224, 2-(Dimethyl-1,2-oxazol-4-yl)-8-fluoro-9-[(4-fluorophenyl)(oxan-4-yl)methyl]-7-(2-hydroxypropan-2-yl)-9H-carbazole-4-carboxamide], the pIC50 was > 7.30.

In the case of `Cc1noc(C)c1-c1cc(C(N)=O)c2c3cc(N4CCOC4=O)ccc3n(C(C)c3ccccc3)c2c1` (centres unmarked) [Example 163, 2-(3,5-dimethyl-4-isoxazolyl)-6-(2-oxo-1,3-oxazolidin-3-yl)-9-(1-phenylethyl)-9H-carbazole-4-carboxamide], the pIC50 was > 7.30.

On to `Cc1noc(C)c1-c1cc(C(N)=O)c2c3cc(C(=O)N4CC(C)OC(C)C4)ccc3n(Cc3cc(F)ccc3F)c2c1` (centres unmarked) [Example 42], for which the pIC50 was > 7.30.

Turning to `Cc1noc(C)c1-c1cc(C(N)=O)c2c3cc(C(=O)N(C)C)ccc3n(Cc3ccccc3)c2c1` [Example 48], the pIC50 was > 7.30.

With `Cc1noc(C)c1-c1cc(C(N)=O)c2c3cc(C(=O)N4CC(C)OC(C)C4)ccc3n(Cc3cccc(F)c3F)c2c1` (centres unmarked) [Example 41], the pIC50 was > 7.30.

As to `CNC(=O)c1cc(-c2c(C)noc2C)cc2[nH]c3ccc(C(=O)N4CC(F)C4)cc3c12` [Example 101, 2-(3,5-dimethyl-4-isoxazolyl)-6-((3-fluoro-1-azetidinyl)carbonyl)-N-methyl-9H-carbazole-4-carboxamide], the pIC50 was > 6.30.

Turning to `Cc1noc(C)c1-c1ccc2c3cc(C(=O)N4CC(C)OC(C)C4)ccc3n(Cc3ccc(F)cc3)c2c1` (centres unmarked) [Example 18], the pIC50 is > 6.30.

Regarding `COc1ccccc1Cn1c2ccc(C(=O)N3CCC(F)C3)cc2c2c(C(N)=O)cc(-c3c(C)noc3C)cc21` (centres unmarked) [Example 82], the pIC50 was > 7.30.

Consider `Cc1noc(C)c1-c1cc(C(N)=O)c2c3cc(C(=O)N4CCCC(C)(C)C4)ccc3n(Cc3ccccc3)c2c1` [Example 72], for which the pIC50 is > 7.30.

With `Cc1noc(C)c1-c1cc(C(N)=O)c2c3cc(C(=O)N4CCCCC4C)ccc3n(Cc3ccccc3)c2c1` (centres unmarked) [Example 73], the pIC50 was > 7.30.

On to `Cc1noc(C)c1-c1cc(C(N)=O)c2c3cc(N4CC(C)(C)COC4=O)ccc3n(Cc3ccc(F)cc3)c2c1` [Example 153, 2-(3,5-dimethyl-4-isoxazolyl)-6-(5,5-dimethyl-2-oxo-1,3-oxazinan-3-yl)-9-(4-fluorobenzyl)-9H-carbazole-4-carboxamide], for which the pIC50 is > 7.30.

For `CCn1c2ccc(C(=O)N3C[C@@H](C)O[C@@H](C)C3)cc2c2ccc(-c3c(C)noc3C)cc21` [Example 2, 2-(3,5-dimethyl-4-isoxazolyl)-6-((cis-2,6-dimethyl-4-morpholinyl)carbonyl)-9-ethyl-9H-carbazole], the pIC50 is > 6.30.

On to `CNC(=O)c1cc(-c2c(C)noc2C)cc2c1c1cc(N(C)C)ccc1n2Cc1ccccc1` [Example 141, 9-benzyl-6-(dimethylamino)-2-(3,5-dimethyl-4-isoxazolyl)-N-methyl-9H-carbazole-4-carboxamide], for which the pIC50 was > 7.30.

On to `CC(=O)N(C)c1ccc2c(c1)c1c(C(N)=O)cc(-c3c(C)noc3C)cc1n2Cc1ccccc1` [Example 131, 9-benzyl-2-(3,5-dimethylisoxazol-4-yl)-6-(N-methylacetamido)-9H-carbazole-4-carboxamide], for which the pIC50 was > 7.30.

On to `CNC(=O)c1cc(-c2c(C)noc2C)cc2c1c1cc(C(=O)N3CC(F)C3)ccc1n2Cc1ccc(Cl)c(F)c1` [Example 109], for which the pIC50 was > 7.30.

Turning to `COc1ccc2c(c1)c1c(C(N)=O)cc(-c3c(C)noc3C)cc1n2C(C)c1ccccc1` (single isomer, unassigned) [Example 179, 2-(3,5-dimethyl-4-isoxazolyl)-6-methoxy-9-(1-phenylethyl)-9H-carbazole-4-carboxamide], the pIC50 is > 7.30.

`Cc1noc(C)c1-c1cc(C(N)=O)c2c3cc(NS(C)(=O)=O)ccc3n(Cc3ccccc3)c2c1` [Example 143, 9-benzyl-2-(3,5-dimethyl-4-isoxazolyl)-6-(methylsulfonamido)-9H-carbazole-4-carboxamide]: the pIC50 is > 7.30.

Turning to `Cc1noc(C)c1-c1cc(C(N)=O)c2c3ccc(C(C)(C)O)cc3n(C(c3ccccc3)C3CCOCC3)c2c1` (single isomer, unassigned) [Example 198], the pIC50 is > 7.30.

Turning to `Cc1noc(C)c1-c1cc(C(N)=O)c2c3cc(C(=O)N4C[C@@H](C)O[C@@H](C)C4)ccc3n(CC3CCC3)c2c1` [Example 26, 9-(cyclobutylmethyl)-2-(3,5-dimethyl-4-isoxazolyl)-6-((cis-2,6-dimethyl-4-morpholinyl)carbonyl)-9H-carbazole-4-carboxamide], the pIC50 was > 7.30.

Regarding `Cc1noc(C)c1-c1cc(C(N)=O)c2c3cc(C(=O)N4CC[C@@H](F)C4)ccc3n(Cc3ccccc3)c2c1` [Example 60], the pIC50 is > 7.30.

For the compound `Cc1noc(C)c1-c1cc(C(N)=O)c2c3cc(N4CCCS4(=O)=O)ccc3n(Cc3ccc(F)cc3)c2c1` [Example 174, 2-(3,5-dimethyl-4-isoxazolyl)-6-(1,1-dioxido-2-isothiazolidinyl)-9-(4-fluorobenzyl)-9H-carbazole-4-carboxamide], the pIC50 was > 7.30.

On to `CNC(=O)c1cc(-c2c(C)noc2C)cc2c1c1cc(C(=O)N3CC(F)C3)ccc1n2Cc1ccc(C#N)cc1` [Example 108], for which the pIC50 was > 7.30.

Regarding `CCNC(=O)c1cc(-c2c(C)noc2C)cc2c1c1cc(C(=O)N3CC(F)C3)ccc1n2Cc1ccc(F)cc1` [Example 126, 2-(3,5-dimethyl-4-isoxazolyl)-N-ethyl-6-((3-fluoro-1-azetidinyl)carbonyl)-9-(4-fluorobenzyl)-9H-carbazole-4-carboxamide], the pIC50 was > 7.30.

Consider `Cc1noc(C)c1-c1cc(C(N)=O)c2c3cc(NC(=O)C4CCOCC4)ccc3n(Cc3ccccc3)c2c1` [Example 145, 9-benzyl-2-(3,5-dimethyl-4-isoxazolyl)-6-((tetrahydro-2H-pyran-4-ylcarbonyl)amino)-9H-carbazole-4-carboxamide], for which the pIC50 is > 7.30.

For the compound `Cc1noc(C)c1-c1cc(C#N)c2c3ccc(C(=O)N4CCOCC4)cc3n(Cc3ccccc3)c2c1` [Example 187, 9-Benzyl-2-(3,5-dimethyl-4-isoxazolyl)-7-(morpholine-4-carbonyl)-9H-carbazole-4-carbonitrile], the pIC50 was > 6.30.

For `Cc1noc(C)c1-c1cc(C(N)=O)c2c3ccc(C(C)(C)O)cc3n(C(c3ccccc3)C3(F)CCC3)c2c1` (single isomer, unassigned) [Example 222, 2-(Dimethyl-1,2-oxazol-4-yl)-9-[(1-fluorocyclobutyl)(phenyl)methyl]-7-(2-hydroxypropan-2-yl)-9H-carbazole-4-carboxamide], the pIC50 was > 7.30.

Take `CNC(=O)c1cc(-c2c(C)noc2C)cc2[nH]c3ccc(N4CCCOC4=O)cc3c12` [Example 168, 2-(3,5-dimethyl-4-isoxazolyl)-N-methyl-6-(2-oxo-1,3-oxazinan-3-yl)-9H-carbazole-4-carboxamide]: the pIC50 is > 6.30.

Turning to `Cc1noc(C)c1-c1cc(C#N)c2c3ccc(C(=O)O)cc3n(Cc3ccccc3)c2c1` [Example 186, 9-Benzyl-5-cyano-7-(3,5-dimethyl-4-isoxazolyl)-9H-carbazole-2-carboxylic acid], the pIC50 was > 7.30.

For the compound `CCNC(=O)c1cc(-c2c(C)noc2C)cc2c1c1cc(N3CCCOC3=O)ccc1n2Cc1ccc(F)cc1` [Example 155, 2-(3,5-dimethyl-4-isoxazolyl)-N-ethyl-9-(4-fluorobenzyl)-6-(2-oxo-1,3-oxazinan-3-yl)-9H-carbazole-4-carboxamide], the pIC50 is > 5.12.

Regarding `Cc1noc(C)c1-c1cc(C(N)=O)c2c3cc(C(=O)N4CCC4C)ccc3n(Cc3ccccc3)c2c1` (centres unmarked) [Example 54], the pIC50 was > 7.30.

In the case of `Cc1ccccc1Cn1c2ccc(C(=O)N3CC(C)OC(C)C3)cc2c2ccc(-c3c(C)noc3C)cc21` (centres unmarked) [Example 19], the pIC50 was > 6.30.
